Values quoted from earlier work in patent publication US20220308074A1, “QUANTIFICATION METHOD OF VITAMIN D DERIVATIVE, ENZYME FOR QUANTIFICATION, COMPOSITION FOR QUANTIFICATION, KIT FOR QUANTIFICATION, ELECTRODE, SENSOR CHIP, AND SENSOR” (KIKKOMAN CORPORATION, priority 2019, published 2022).
Where two headings read alike, the source gives them in different places.

| half-life in the blood (in vivo) | Substance | half-life in the blood (blood) |
| --- | --- | --- |
| – | 1,25-dihydroxyvitamin D | about 15 hours |
| 2-3 weeks | 25-hydroxyvitamin D | – |
